Experimental data from patent EP4342467A1, “KU INHIBITORS FOR USE IN TUMOR THERAPY” (Masarykova Univerzita, priority 2022, dated 2024).

What was measured:
[1] = target: Ku complex (Homo sapiens, UniProt P12956+P13010); assay: electrophoretic mobility shift assay (EMSA) of Ku binding to double stranded DNA; details: 98 bp DNA probe, compared with STL127705 (Figure 1)
Description: We also compared iKU-1 (Compound 1) and the published Ku inhibitor STL127705 (Weterings, E., Gallegos, A.C., Dominick, L.N., Cooke, L.S., Bartels, T.N., Vagner, J., Matsunaga, T.O., and Mahadevan, D. (2016). A novel small molecule inhibitor of the DNA repair protein Ku70/80. DNA Repair (Amst) 43, 98-106) in their efficiency to inhibit binding of Ki to double stranded DNA by electrophoretic mobility shift assay (Figure 1). A 98 bp long oligonucleotide that can bind up to four Ku complexes was used as a probe.
DNA (0.6 nM) in 10 µl EMSA buffer (35 mM Tris-Cl pH 7.9, 150 mM KCl, 1 mM EDTA, 0.1 mM Dithiothreitol, 5% Glycerol) was mixed with 10 µl of human Ku complex (100 nM in EMSA buffer) preincubated with the inhibitors for 5 min at room temperature, and incubated for additional 10 min. DNA associated with Ku complexes was seprated by native polyacrylamide gel electrophoresis (5% polyacrylamide 29:1 [Sigma-Aldrich], 0.5 TBE) at 160 V for 4 hrs. Gels were dried in gel dryer on 3MM paper, exposed to phospho-screen (GE Healthcare) and the autoradiograms were generated by scanning with Typhoon (GE Healthcare).

[2] = test system: HCT116 cells; assay: DNA damage induction, immunodetection of γH2AX in nuclei; type: cell-based, human; details: HCT116 incubated for 1 day
Protocol: iKU-1 induces DNA damage in treated cells (Figure 3). HCT116 cells were incubated for 1 day in McCoy's 5a medium with 10% Fetal Bovine Serum, 2 mM L-Glutamine and Penicilin/Streptomycin 200 U/l each and supplemented with iKU-1. DNA damage induction was assessed by immunodetection of yH2AX in nuclei with specific antibody (Anti-phospho-Histone H2A.X (Ser139) Antibody, clone JBW301, Merck; dilution 1:500) and Alexa Fluor-conjugated secondary antibody (Goat anti-Mouse IgG (H+L) Highly Cross-Adsorbed Secondary Antibody, Alexa Fluor™ Plus 647, Invitrogen/Thermofisher; dilution 1:500).

[3] = test system: HCT116 cells; assay: Q-FISH scoring of chromosome arms with no telomeric signal; type: cell-based, human; details: HCT116, one or two days, 2 or 5 µM
Protocol: Presence of extrachromosomal circular telomeric DNA indicates rapid telomere shortening via excision of telomeric circles. To validate this prediction, we scored chromosome arms with no telomeric signal on metaphase chromosomes from iKU-1 treated cells by quantitative fluorescence in situ hybridization (Q-FISH). HCT116 cells were incubated for one or two days in McCoy's 5a medium with 10% Fetal Bovine Serum, 2 mM L-Glutamine and Penicilin/Streptomycin 200 U/l each and supplemented with iKU-1 (2 or 5 µM). Treated cells were incubated with colcemid (0.05 µg/ml) for 3 hours to increase a number of cells in metaphase. Cells were harvested and fixed in methanol and glacial acetic acid (3:1 v/v). Chromosome spreads on slides were hybridized with telomeric peptide nucleid acid probe TelC-Cy3 (Panagene, F1002) in 70% formamide, 0.5% blocking reagent (Roche) and 20 mM TRIS-Cl pH 7.4 according manufacturer's instruction. After washing, slides were counterstained with DAPI and mounted in […]® Antifade Mounting Medium with DAPI (Vector Laboratories; H-1200-10). Fluorescence microscope with oil immersed 100× objective was used to detect telomeric signal at chromosome ends.

[4] = test system: HCT116 cells; assay: Telomere Shortest Length Assay; type: cell-based, human; details: HCT116 treated for two days, compared with untreated control
Protocol: iKU-1 induces rapid shortening of telomeres (Figure 6). HCT116 cells were treated for two days with iKU-1 and telomere size was measured by Telomere Shortest Length Assay as described in Lai, T.P., Zhang, N., Noh, J., Mender, I., Tedone, E., Huang, E., Wright, W.E., Danuser, G., and Shay, J.W. (2017). A method for measuring the distribution of the shortest telomeres in cells and tissues. Nat Commun 8, 1356, whereby individual telomeres are PCR-amplified, separated by agarose gel electrophoresis and detected by Southern hybridization with P^32-labeled telomeric DNA oligonucleotide (5'-[…]-3' (SEQ ID NO: 6)).

[5] = test system: A2780; assay: growth of A2780 cells by ATPlite, alone and in combination with Bleomycin; type: cell-based, human
Protocol: 2,000 A2780 cells were seeded in 100 µl of RPMI 1640 medium with 300 mg/l L-Glutamine and 10% Fetal Bovine Serum for 1 day in 96well plate and treated by 0.025 µg/ml of Bleomycin, 0.5 µM of iKu-1 or their combination for 7 days. Number of viable cells was measured by ATPlite kit (Perkin Elmer) and normalized to the treatment with 0.5% DMSO.
Values in the table indicate relative growth assessed by ATPlite kit compared to the control sample treated with 0.5% DMSO after 7 days of treatment.
2,000 SKOV3 and A2780 cells were seeded in 100 µl of McCoy's 5a or RPMI 1640 media, respectively, for one day and then incubated with iKU-1 for 7 days. Number of viable cells was measured by ATPlite kit (Perkin Elmer) and normalized to the treatment with 0.5% DMSO.

Sequence of Ku complex (P12956 whole entry): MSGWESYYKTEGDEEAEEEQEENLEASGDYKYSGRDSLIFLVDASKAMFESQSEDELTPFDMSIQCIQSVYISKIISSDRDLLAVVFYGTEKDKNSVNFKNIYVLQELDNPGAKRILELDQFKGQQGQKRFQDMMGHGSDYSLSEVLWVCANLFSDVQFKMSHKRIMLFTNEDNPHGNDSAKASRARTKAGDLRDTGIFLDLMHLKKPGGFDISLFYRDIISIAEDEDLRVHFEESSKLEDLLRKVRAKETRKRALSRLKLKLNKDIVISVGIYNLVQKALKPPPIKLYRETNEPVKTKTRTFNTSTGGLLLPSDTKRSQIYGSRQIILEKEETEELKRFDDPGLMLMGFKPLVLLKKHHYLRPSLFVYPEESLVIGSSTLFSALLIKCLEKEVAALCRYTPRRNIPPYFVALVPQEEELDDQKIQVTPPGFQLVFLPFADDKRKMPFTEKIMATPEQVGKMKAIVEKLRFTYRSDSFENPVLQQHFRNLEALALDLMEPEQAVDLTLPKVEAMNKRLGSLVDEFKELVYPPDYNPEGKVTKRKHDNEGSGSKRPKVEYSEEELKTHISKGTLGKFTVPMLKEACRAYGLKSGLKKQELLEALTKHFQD
Sequence of Ku complex (P13010 whole entry): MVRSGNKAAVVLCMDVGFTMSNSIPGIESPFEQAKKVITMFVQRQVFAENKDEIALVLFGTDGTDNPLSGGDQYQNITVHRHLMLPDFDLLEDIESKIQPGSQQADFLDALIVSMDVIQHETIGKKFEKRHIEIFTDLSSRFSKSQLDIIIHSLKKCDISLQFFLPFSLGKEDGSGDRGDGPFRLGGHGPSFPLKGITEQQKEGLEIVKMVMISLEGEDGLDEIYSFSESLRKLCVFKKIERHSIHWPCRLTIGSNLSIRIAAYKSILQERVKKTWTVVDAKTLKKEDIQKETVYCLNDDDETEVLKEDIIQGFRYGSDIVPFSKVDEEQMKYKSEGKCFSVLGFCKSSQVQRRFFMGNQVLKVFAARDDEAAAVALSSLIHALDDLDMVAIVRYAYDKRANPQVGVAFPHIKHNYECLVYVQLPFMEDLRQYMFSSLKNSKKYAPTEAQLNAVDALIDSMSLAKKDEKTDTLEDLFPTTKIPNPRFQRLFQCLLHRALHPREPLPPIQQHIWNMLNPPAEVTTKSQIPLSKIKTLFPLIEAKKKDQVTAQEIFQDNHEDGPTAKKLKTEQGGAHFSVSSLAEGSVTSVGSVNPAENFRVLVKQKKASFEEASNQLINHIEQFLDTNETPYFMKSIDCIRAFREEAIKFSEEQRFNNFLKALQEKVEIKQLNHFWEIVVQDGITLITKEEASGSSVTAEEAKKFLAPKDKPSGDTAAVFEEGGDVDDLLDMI

In the case of O=C(Nc1nc(-c2ccccn2)cs1)c1cncc(Br)c1 [Compound 1], the “efficiency to inhibit binding of Ku to double stranded DNA” value [1] is reported as “more potent inhibitor of Ku-DNA binding than STL127705”, the “DNA damage induction (γH2AX signal)” value [2] is reported as “formation of either nuclear foci or whole nuclear staining in a subset of cells” and the “incidence of telomere-free chromosome ends” value [3] is reported as “increase incidence of telomere-free chromosome ends”. The size of telomeres [4] was “relative decrease in the size of telomeres”, the “interaction with Bleomycin on growth” value ([5]; A2780, 0.025 µg/ml Bleomycin with 0.5 µM iKu-1, 7 days) was “synergism” and the growth inhibition ([5]; A2780, 0.5 µM, 7 days) was “do not show growth inhibition”. For the same compound, the “relative growth assessed by ATPlite kit compared to the control sample treated with 0.5% DMSO” value ([5]; A2780, 0.025 µg/ml Bleomycin, 0.5 µM iKU-1 or their combination, 7 days) was 1.11.
